# PubChem BioAssay AID330 (DTP/NCI, 2004)
# Where “and” joins values, the source holds several entries; their conditions need not be identical. Identical values can stand only once. Inconclusive results and toxic doses are left out.
# System: P388 leukemia ip, CD2F1 mice, survival T/C
# Test: NCI In Vivo Anticancer Drug Screen. Data for tumor model P388 Leukemia (intraperitoneal) in CD2F1 (CDF1) mice
# Details: endpoint: median survival time, higher = longer survival
# Procedure, shortened: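 Mice carrying the transplanted tumor received test compound or vehicle. Survival was recorded in each group, and the value is the treated-group measurement divided by that of the vehicle-treated control group.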
# [1] = dose: 60.0 mg/kg/injection, schedule: Q01DX005 (ip), vehicle: Klucel (hydroxypropylcellulose) (HPC)
# [2] = dose: 120.0 mg/kg/injection, schedule: Q01DX005 (ip), vehicle: Klucel (hydroxypropylcellulose) (HPC)
# [3] = dose: 30.0 mg/kg/injection, schedule: Q01DX005 (ip), vehicle: Klucel (hydroxypropylcellulose) (HPC)
# [4] = dose: 240.0 mg/kg/injection, schedule: Q01DX005 (ip), vehicle: Klucel (hydroxypropylcellulose) (HPC)
# [5] = dose: 50.0 mg/kg/injection, schedule: Q01DX009 (ip), vehicle: saline
# [6] = dose: 100.0 mg/kg/injection, schedule: Q01DX009 (ip), vehicle: saline
# [7] = dose: 200.0 mg/kg/injection, schedule: Q01DX009 (ip), vehicle: saline
# [8] = dose: 6.25 mg/kg/injection, schedule: Q01DX009 (ip), vehicle: saline with Tween-80
# [9] = dose: 12.5 mg/kg/injection, schedule: Q01DX009 (ip), vehicle: saline with Tween-80
# [10] = dose: 25.0 mg/kg/injection, schedule: Q01DX009 (ip), vehicle: saline with Tween-80
# [11] = dose: 50.0 mg/kg/injection, schedule: Q01DX005 (ip), vehicle: saline
# [12] = dose: 100.0 mg/kg/injection, schedule: Q01DX005 (ip), vehicle: saline
# [13] = dose: 200.0 mg/kg/injection, schedule: Q01DX005 (ip), vehicle: saline
# [14] = dose: 50.0 mg/kg/injection, schedule: Q01DX009 (ip), vehicle: Klucel (hydroxypropylcellulose) (HPC)
# [15] = dose: 200.0 mg/kg/injection, schedule: Q01DX009 (ip), vehicle: Klucel (hydroxypropylcellulose) (HPC)
# [16] = dose: 200.0 mg/kg/injection, schedule: Q01DX009 (ip), vehicle: saline with Tween-80
# [17] = dose: 50.0 mg/kg/injection, schedule: Q01DX005 (ip), vehicle: Klucel (hydroxypropylcellulose) (HPC)
# [18] = dose: 100.0 mg/kg/injection, schedule: Q01DX005 (ip), vehicle: Klucel (hydroxypropylcellulose) (HPC)
# [19] = dose: 200.0 mg/kg/injection, schedule: Q01DX005 (ip), vehicle: Klucel (hydroxypropylcellulose) (HPC)
smiles,measurement,setting,value
Oc1cc2c(cc1C(c1ccc(Cl)cc1)N1CCN(C(c3ccc(Cl)cc3)c3cc4c(cc3O)OCO4)CC1)OCO2 (configuration not stated),T/C,[1],89 % of control
same,T/C,[2],88 % of control
C/C=C/C[P+](Cc1ccccc1)(c1ccccc1)c1ccccc1,T/C,"dose: 0.78 mg/kg/injection, schedule: Q01DX009 (ip), vehicle: saline",105 % of control
same,T/C,"dose: 1.56 mg/kg/injection, schedule: Q01DX009 (ip), vehicle: saline",113 % of control
same,T/C,"dose: 3.13 mg/kg/injection, schedule: Q01DX009 (ip), vehicle: saline",107 % of control
COC(=O)c1cccnc1C#N,T/C,[3],100 % of control
same,T/C,[1],110 % of control
same,T/C,[2],102 % of control
same,T/C,[4],112 % of control
Clc1c(Cl)c(Cl)c(SC2C3CC4C(C3)C42)c(Cl)c1Cl (configuration not stated),T/C,[5],103 % of control
same,T/C,[6],108 % of control
same,T/C,[7],101 % of control
CCCCN(C)C(=S)N/N=C(\C)c1ccccn1,T/C,[8],98 % of control
same,T/C,[9],101 % of control
same,T/C,[10],111 % of control
Cc1cc(=O)[nH]c(=O)n1C1OC(CO)C(O)C1O (configuration not stated),T/C,[11],109 % of control
same,T/C,[12],103 % of control
same,T/C,[13],112 % of control
CN(C)CCCCCC[N+](C)(C)Cc1ccc(C[N+](C)(C)CCCCCC[N+](C)(C)Cc2ccc(CCl)cc2)cc1,T/C,"dose: 3.12 mg/kg/injection, schedule: Q04DX003 (ip), vehicle: saline",108 % of control
same,T/C,"dose: 6.25 mg/kg/injection, schedule: Q04DX003 (ip), vehicle: saline",106 % of control
same,T/C,"dose: 12.5 mg/kg/injection, schedule: Q04DX003 (ip), vehicle: saline",97 % of control
O=C1Cc2ccccc2CC1CC1Cc2ccccc2CC1=O (configuration not stated),T/C,[14],87 % of control
same,T/C,[15],91 % of control
C=CCNC(=S)Nc1sc2c(c1C(=O)OCC)CCCC2,T/C,[14],93 % of control
same,T/C,"dose: 100.0 mg/kg/injection, schedule: Q01DX009 (ip), vehicle: Klucel (hydroxypropylcellulose) (HPC)",94 % of control
same,T/C,[15],89 % of control
S=C(Nc1ccc(Br)cc1)SCc1ccc2c(c1)OCO2,T/C,"dose: 50.0 mg/kg/injection, schedule: Q01DX009 (ip), vehicle: suspension in saline",109 % of control
same,T/C,"dose: 100.0 mg/kg/injection, schedule: Q01DX009 (ip), vehicle: suspension in saline",119 % of control
same,T/C,"dose: 200.0 mg/kg/injection, schedule: Q01DX009 (ip), vehicle: suspension in saline",93 % of control
CC(CC(=O)O)C(C)(C#N)C(=O)O (configuration not stated),T/C,[11],102 % of control and 110 % of control
same,T/C,[12],91 % of control and 96 % of control
same,T/C,[13],96 % of control
Cc1cc(C)nc(NCCCCCCNc2nc(C)cc(C)n2)n1,T/C,"dose: 100.0 mg/kg/injection, schedule: Q04DX003 (ip), vehicle: saline with Tween-80",101 % of control
same,T/C,"dose: 200.0 mg/kg/injection, schedule: Q04DX003 (ip), vehicle: saline with Tween-80",90 % of control
same,T/C,"dose: 400.0 mg/kg/injection, schedule: Q04DX003 (ip), vehicle: saline with Tween-80",92 % of control
Cc1cc(N)ncc1[N+](=O)[O-],T/C,"dose: 50.0 mg/kg/injection, schedule: Q01DX005 (ip), vehicle: saline with Tween-80",99 % of control
same,T/C,"dose: 100.0 mg/kg/injection, schedule: Q01DX005 (ip), vehicle: saline with Tween-80",101 % of control
same,T/C,"dose: 200.0 mg/kg/injection, schedule: Q01DX005 (ip), vehicle: saline with Tween-80",98 % of control
CCCCS(=O)(=O)CSC#N,T/C,"dose: 3.12 mg/kg/injection, schedule: Q01DX005 (ip), vehicle: saline with Tween-80",102 % of control
same,T/C,"dose: 6.25 mg/kg/injection, schedule: Q01DX005 (ip), vehicle: saline with Tween-80",105 % of control
same,T/C,"dose: 12.5 mg/kg/injection, schedule: Q01DX005 (ip), vehicle: saline with Tween-80",117 % of control
O=[N+]([O-])c1ccc2nnnn2c1,T/C,[5],100 % of control
same,T/C,[6],107 % of control
same,T/C,[7],100 % of control
O=C1/C(=C/c2cccs2)CCc2ccccc21,T/C,[1],100 % of control
same,T/C,[2],107 % of control
same,T/C,[4],98 % of control
CC(Nc1ccc([N+](=O)[O-])c2nonc12)C(=O)O (configuration not stated),T/C,[8],108 % of control
same,T/C,[9],100 % of control
same,T/C,[10],111 % of control
same,T/C,[16],86 % of control
CCOC(=O)\C(C#N)=C/C(C)=C/C(C)=C/Nc1ccc([N+](=O)[O-])cc1[N+](=O)[O-],T/C,[17],111 % of control
same,T/C,[18],110 % of control
same,T/C,[19],114 % of control
CSc1nccn[n+]1C,T/C,"dose: 100.0 mg/kg/injection, schedule: Q01DX001 (ip), vehicle: saline",112 % of control
same,T/C,"dose: 200.0 mg/kg/injection, schedule: Q01DX001 (ip), vehicle: saline",111 % of control
N/C(=N\N=C1CCCCC1)N[N+](=O)[O-],T/C,[17],105 % of control
same,T/C,[18],102 % of control
same,T/C,[19],102 % of control
CCCC1SCC(=O)N1c1nncs1 (configuration not stated),T/C,[3],94 % of control
same,T/C,[1],104 % of control and 111 % of control
same,T/C,"dose: 100.0 mg/kg/injection, schedule: Q01DX001 (ip), vehicle: Klucel (hydroxypropylcellulose) (HPC)",96 % of control
same,T/C,[2],120 % of control
same,T/C,"dose: 200.0 mg/kg/injection, schedule: Q01DX001 (ip), vehicle: Klucel (hydroxypropylcellulose) (HPC)",103 % of control
same,T/C,[4],166 % of control
Oc1cccnc1CN1CCOCC1,T/C,[5],101 % of control
same,T/C,[6],93 % of control
same,T/C,[7],101 % of control
same,T/C,"dose: 400.0 mg/kg/injection, schedule: Q01DX009 (ip), vehicle: saline",101 % of control
O=C1N=C2SCCCN2C1(c1ccccc1)c1ccccc1,T/C,"dose: 60.0 mg/kg/injection, schedule: Q01DX005 (ip), vehicle: saline with Tween-80",97 % of control
same,T/C,"dose: 120.0 mg/kg/injection, schedule: Q01DX005 (ip), vehicle: saline with Tween-80",92 % of control
same,T/C,"dose: 240.0 mg/kg/injection, schedule: Q01DX005 (ip), vehicle: saline with Tween-80",100 % of control
CCOC(=O)C(Cc1cc2c(n1C)CCCC2)(NC(C)=O)C(=O)OCC,T/C,"dose: 25.0 mg/kg/injection, schedule: Q01DX005 (ip), vehicle: Klucel (hydroxypropylcellulose) (HPC)",98 % of control
same,T/C,[17],96 % of control
same,T/C,[18],98 % of control
same,T/C,[19],100 % of control
COc1ccc(C=C2C(=O)N(c3ccccc3)C(=S)N(c3ccccc3)C2=O)cc1,T/C,[17],94 % of control
same,T/C,[18],90 % of control
same,T/C,[19],88 % of control
FC(F)(F)C1=C(C(F)(F)F)SP(Cl)(Cl)(c2ccccc2)S1,T/C,"dose: 12.5 mg/kg/injection, schedule: Q04DX003 (ip), vehicle: saline with Tween-80",105 % of control
same,T/C,"dose: 25.0 mg/kg/injection, schedule: Q04DX003 (ip), vehicle: saline with Tween-80",105 % of control
same,T/C,"dose: 50.0 mg/kg/injection, schedule: Q04DX003 (ip), vehicle: saline with Tween-80",105 % of control
same,T/C,"dose: 75.0 mg/kg/injection, schedule: Q04DX003 (ip), vehicle: saline with Tween-80",101 % of control
[CH3][Ge]([CH3])=[O],T/C,[5],102 % of control
same,T/C,[6],91 % of control
same,T/C,[7],100 % of control
Nc1ccc(-c2ccc(N)c(Cl)c2)cc1Cl,T/C,"dose: 50.0 mg/kg/injection, schedule: Q01DX009 (ip), vehicle: saline with Tween-80",104 % of control
same,T/C,"dose: 100.0 mg/kg/injection, schedule: Q01DX009 (ip), vehicle: saline with Tween-80",114 % of control
same,T/C,[16],112 % of control
O=C(NC(c1ccccc1)c1cccs1)c1cccs1 (configuration not stated),T/C,[17],99 % of control
same,T/C,[18],99 % of control
same,T/C,[19],103 % of control
